As a reminder, the melting point is the temperature of the solid-liquid transition.

`CCOC(=O)COc1c(C)cc(C(O)(C(F)(F)F)C(F)(F)F)cc1C` registered a melting point of 99 to 101 °C. With `COc1ccc(-c2cc(C(F)F)n3ncc(-c4ccncc4)c3n2)cc1` the figure was 206 °C; with `CC(C)=C(C#N)C(=O)NCc1ccc(Cl)c(Cl)c1`, 131 to 132 °C; with `CCCCCCCCCc1ccc(C(Sc2cccc(NC(=O)CC(=O)O)c2)C(=O)CCCC(=O)O)cc1` (centres undefined), 88 to 91 °C.

Turning to `O=C1NCc2ccc(OCCCCN3CCN(c4cccc(Cl)c4Cl)CC3)nc2N1`, the melting point lay in the range of 166 to 167 °C. The molecule `CC(C)OC(=O)Nc1cccc(-c2ccnc3c(C(=O)C4CCCC4)cnn23)c1` yielded a melting point of 57 to 59 °C.

As to `O=C(NCc1ncc[nH]1)c1[nH]c2ccc(Cl)cc2c1S(=O)(=O)c1ccccc1`, the melting point lay in the range of 276 to 278 °C. Molecule `CCCCc1nc2cccc(C(=O)O)c2n1Cc1ccc(-n2cccc2-c2nnn[nH]2)cc1` returned a melting point of 165 to 167 °C. `C#Cc1ccnc(-c2cc([N+](=O)[O-])c(-c3ccccc3)cc2N)c1` yielded a melting point of 187 to 190 °C. With `O=C(NO)c1ccc2c(c1)CCN(C(=O)NCCc1c[nH]c3ccccc13)C2` the figure was 173 to 176 °C; with `NC(=O)c1c(N)sc2c1CCC1(C2)OCCO1`, 157 to 158 °C; with `CC(C)(C)OC(=O)NN[C@@H]1c2cc(C#N)ccc2OC(C)(C)[C@H]1O` (relative stereo), 136 to 138 °C.

In the case of `Cc1cccc(C)c1Sc1c(O)cc(-c2ccccc2)oc1=O`, the melting point was 248 to 249 °C. Molecule `Cc1c(=O)n(Cc2ccc(C(=O)OC(C)(C)C)cc2)c(=O)n2ccsc12` displayed a melting point of 163 to 165 °C.

`Cc1nsc(OCC(Cl)(Cl)Cl)c1[N+](=O)[O-]` gave a melting point of 60 to 61 °C. Molecule `COc1ccc2c(c1)c(C(C)C(=O)O)cc(=O)n2Cc1ccccc1Cl` (centres undefined) returned a melting point of 187 to 188 °C. The molecule `CCCCNC(=O)Oc1ccc(C(O)(CC)c2ccc(Cl)cc2)cc1` (centres undefined) showed a melting point of 78 to 79 °C. `COc1ccc(C(=O)CCC2CCN(C(C)=O)CC2)cc1N` yielded a melting point of 101 to 103 °C. The same measure for `CCCn1c(NC(=O)c2ccccc2)nc2ccccc2c1=O`: 133 to 135 °C; for `O=C(Nc1nc(C(=O)NC2CN3CCC2CC3)cs1)c1ccc(OCc2ccccc2)cc1` (centres undefined): 196 °C. Regarding `CCO/C(=C\c1ccc(OCCc2ccc(OS(C)(=O)=O)cc2)c(OC)c1)C(=O)O`, the melting point came to 147 °C. `O=C(Nc1ccc(Oc2ccccc2)cc1)c1cc([N+](=O)[O-])ccc1Cl` came in with a melting point of 128 °C. The molecule `COC(=O)Cn1c(C)ccc(NC(=O)OCc2ccccc2)c1=O` yielded a melting point of 115 to 116 °C. Molecule `COc1ccc(Cc2nc3c(N)nc4ccccc4c3n2CCCCNS(C)(=O)=O)cc1` showed a melting point of 78.1 to 79.5 °C.

The molecule `CC1=NNC(=O)N(N=Cc2cccnc2C)C1` yielded a melting point of 226 to 229 °C.

For the molecule `NS(=O)(=O)NC(=O)CCCCCC1CCSS1` (centres undefined), the melting point lay in the range of 130 to 132 °C. `COC(=O)C(CCl)NC(=O)c1c(F)cccc1F` (centres undefined) had a melting point of 93.5 °C. With `COC(Cn1cncn1)(c1ccc(Cl)cc1)C(C)(C)C1CC1` (centres undefined) the figure was 87 to 89 °C; with `O=C1C2=C(CCCC2)C(=O)N1c1cc(OC2CCCC2)c(Cl)cc1F`, 69 to 75.2 °C. For `CCN1C(=O)CN=C(c2ccccc2F)c2cc(C(C)O)ccc21` (centres undefined), the melting point lay within 48 to 50 °C. Take `N#Cc1c[nH]cc1C(F)(F)F`: the melting point was in the range of 96 to 97 °C. For the molecule `COc1cc2c(cc1Br)CCC2=O`, the melting point was in the range of 149 to 151 °C. With `Fc1ccc(Cn2cnc3c(-c4ccco4)ncnc32)cc1`, the melting point was 162 to 164 °C. With `Cc1cc(-c2ccc(C(F)(F)F)c(C)c2)nc(-c2cccc(-c3cccc(S(N)(=O)=O)c3)c2)n1`, the melting point stood at 222 °C.

In the case of `CCCCCCCCCCCCCCCCCCNCC(O)COc1ccc(Nc2ccccc2)cc1` (centres undefined), the melting point is 81 to 86 °C. On to `CC(C)c1cc2c(c3c1C(=O)N(CCl)S3(=O)=O)OCO2`, for which the melting point was 174 to 176 °C. `CC(C)(C)c1cc(C(=O)COc2ccc(Cl)cc2Oc2ccc(Cl)cc2Cl)cc(C(C)(C)C)c1O` came in with a melting point of 111 to 114 °C. With `S=C=Nc1c(Br)cccc1Br` the figure was 63 to 65 °C; with `CC(C)(C)OC(=O)[C@H]1CC[C@@H](NC(=O)OCc2ccccc2)CC1`, 73 to 74 °C. Consider `CC(=O)Nc1ccc(-c2c(NC(C)=O)n(C)c3ccccc23)cc1`, for which the melting point lay within 234 to 237 °C.

In turn, `C=CCOc1ccccc1[N+](=O)[O-]` came in with a melting point of 70 to 72 °C. In the case of `CCN1C(=O)C(=C(O)Cc2ccccc2)SC1=S`, the melting point fell in the range of 74 to 76 °C. With `COc1ccccc1N1CCN(c2nc3cccccc-3c2C#N)CC1` the figure was 141 to 143 °C. Turning to `O=C1CCSc2c1ccc(Cl)c2Cl`, the melting point is 93 to 102 °C.

On to `Cn1nnc2c(N3CCOCC3)nc(-c3ccc(NC(=O)Nc4cccnc4)cc3)nc21`, for which the melting point came to 272 °C. `CCN(CC)CCN1C(=O)Nc2ccccc2C1c1cccc(O)c1` (centres undefined): the melting point lay in the range of 208 to 210 °C. `CC(C)=CCOc1ccc2c(=O)c3ccccc3oc2c1C(=O)C=Cc1ccccc1` gave a melting point of 116 to 118 °C. In turn, `CC(=O)OCCn1c(C(=O)Nc2ccc(OCC(C)(C)C)c(C#N)c2)cc2ccccc21` displayed a melting point of 169 to 170 °C. Take `Cc1cc(CC2CCCCC2)c(NC(=O)OCc2ccccc2)c(=O)n1CC(=O)O`: the melting point is 150 °C.

Molecule `COc1c(Br)c(O)c(Br)c2nc(-c3ccc(O)cc3)oc12` showed a melting point of 246 to 248 °C. The same measure for `Cc1ccc(-n2c3ccc(C)cc3c3cc(-n4ccnc4-c4nccn4-c4ccc5c(c4)c4cc(C)ccc4n5-c4ccc(C)cc4)ccc32)cc1`: 208 to 214 °C; for `Brc1ccc2c(c1)COC(N[C@@H]1CCc3ccccc31)=N2`: 123 °C. Regarding `O=C1CCN(C(=O)Cl)c2cc(Cl)ccc21`, the melting point was in the range of 150 to 153 °C. `Cc1nc(-n2ccn(Cc3ccc(F)cc3)c2=O)sc1C(=O)NCc1cccnc1` showed a melting point of 158 to 159 °C. `O=C(CCc1conc1-c1ccc(Cl)cc1)NCc1cccc(C(F)(F)F)c1` returned a melting point of 80 to 81 °C. The same measure for `O=c1c(CCCc2cnccn2)cc2cccnc2n1-c1cccc([N+](=O)[O-])c1`: 194 to 195 °C; for `CCOC(=O)Cc1c(Br)cnc2c([N+](=O)[O-])cccc12`: 163 to 164 °C; for `Cc1ccc(Cn2c(=O)c(-c3ccccc3)c3n(c2=O)CC=CS3)cc1`: 124 to 125 °C. In turn, `CCC12CCC3=C(CC(C)c4cc(OC)ccc43)C1=CCC21OCCO1` (centres undefined) gave a melting point of 116 to 119 °C.

Consider `CC(=O)OC1CSC(Oc2ccc(-c3cccnc3F)nc2)C(OC(C)=O)C1OC(C)=O` (centres undefined), for which the melting point was 153 °C.

Take `COc1ccc(-c2[nH]c3cn[nH]c(=O)c3c2Cl)cc1OC1CCC1`: the melting point is 285 to 287 °C.

`OCCNc1c(Br)cnc2cc(C(F)(F)F)ccc12`: the melting point is 140 to 141 °C.

As for `Nc1ccc(C23CC(C2)C(=O)N(Cc2ccccc2)C3=O)cc1`, the melting point is 164 to 166 °C. Molecule `CNC(=O)C(CCO)C1(C)OCCc2c1[nH]c1ccccc21` (centres undefined) showed a melting point of 169 to 171 °C. For `COc1ccc(N2CCN(CCC3OCCc4cc(C#N)ccc43)CC2)cc1` (centres undefined), the melting point lay within 86 to 88 °C.

`CCC(=O)c1cc(C#N)c(=O)[nH]c1C` registered a melting point of 259 to 263 °C. Molecule `Nc1ncnc2sc(Cc3ccccc3)c(-c3ccc([N+](=O)[O-])cc3)c12` displayed a melting point of 231 to 233 °C.

For the molecule `CCCCCCCC(CCCCCC)CCOC(=O)c1ccccc1N=NN1CCOCC1` (centres undefined), the melting point was in the range of 40 to 42 °C. As to `COc1cc(C=O)c(OC)c2c1C(C)(C)CCC2(C)C`, the melting point lay within 55 to 57 °C.

`CC(=O)c1cccc(Oc2ncccc2C(=O)NCc2ccc([C@H](C)O)cc2)c1`: the melting point was 102 to 104 °C. `CCN(CC)CC=CC(=O)Nc1cc2c(Nc3ccc(F)c(Cl)c3)ncnc2cc1OC1CCC1` came in with a melting point of 111 °C.

`CCCCCC(=O)CCC(=O)O` came in with a melting point of 67 to 68 °C. With `COC(=O)c1cc(C(=O)NC(C)(C)CO)c2cc(Cc3ccc(F)cc3)cnc2c1O` the figure was 204 to 205 °C; with `FC(F)(F)c1ccc2c(c1)SSSSS2`, 44 to 50 °C; with `COC(=O)C(C)Oc1ccc(Sc2cc(-n3nc(C)n(C(F)F)c3=O)c(Cl)cc2Cl)cc1` (centres undefined), 100 to 101 °C. The molecule `CCCNCc1ccc(S(=O)(=O)c2ccc(S(N)(=O)=O)s2)cc1` returned a melting point of 151 to 153 °C. `COc1ccccc1C(=O)Nc1ccc(Cl)c(C(=O)OC(C)C)c1` displayed a melting point of 94 to 96 °C. `COC1CN(CCCNc2ncccn2)CCC1NC(=O)C1=CC(Cl)(OC)C(N)C=C1` (centres undefined) registered a melting point of 158 °C. In turn, `O=C(COc1cccc2ccccc12)c1cc(O)c(O)c([N+](=O)[O-])c1` returned a melting point of 198 to 199 °C. In turn, `CCOc1ccccc1-c1nc2c(C(N)=O)ccnc2c(=O)[nH]1` displayed a melting point of 295 to 297 °C. `O[C@@H](COc1cccc(-c2noc3ccsc23)c1)CN1CCN(c2cccc(Cl)c2)CC1` registered a melting point of 118 to 120 °C. As to `CCCCC[C@H](CC(=O)OC(C)(C)C)C(=O)N1C(=O)OC[C@@H]1C(C)C`, the melting point was 51 to 53 °C. Molecule `Cc1nc(-n2cnn(Cc3ccc(F)cc3)c2=O)sc1C(=O)NCc1cccc(N(C)C)c1` came in with a melting point of 149 to 151 °C.

As to `N#Cc1ccc(-c2nc3c(C(N)=O)cccc3[nH]2)cc1`, the melting point is above 310 °C.

The molecule `COc1ccnc(C#N)c1OC` showed a melting point of 133 °C. The molecule `CCOC(=O)c1c(C(F)(F)F)nc(C(F)(F)Cl)c(C(=O)O)c1OCC` displayed a melting point of 81 to 83 °C. With `CC(C)CCCC(C)C1C=CC2(CC(=O)O)C3=C(CCC12C)C1(C)CCC(O)CC1CC3` (centres undefined) the figure was 221 to 222 °C; with `COc1cc(C)c(CCCCCCCCCCCCCCCCCCOC(C)=O)c(O)c1OC`, 53 °C; with `COc1ccc(S(=O)(=O)C(C)(Cc2cccc(OCCN3CCCCC3)c2)C(N)=O)cc1` (centres undefined), 74 °C.

The record behind these values is a melting point compilation (Tetko et al.; mined from patent text by program, amines drawn as free bases though some values may be those of a salt).
